Patent publication US12077503B2, “Substituted cyclic amides and their use as herbicides” (FMC CORPORATION, priority 2015, dated 2024)

Experiments:
Assay type in all cases: in vivo
rice (Oryra sativa) = experiment: Test B flooded paddy test; conditions: Flood, 250 g ai/ha; 0 to 100 scale where 0 is no effect and 100 is complete control; 13 to 15 d
Method in brief: (§1)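 Response scored visually against untreated controls, 0 = no effect and 100 = complete control, 13–15 d after treatment in the greenhouse. Compounds added to paddy water held 3 cm above soil surface. Treatment given at 2-leaf stage.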

[1] = system: ducksalad (Heteranthera limosa); experiment: Test B flooded paddy test; conditions: Flood, 250 g ai/ha; 0 to 100 scale where 0 is no effect and 100 is complete control; 13 to 15 d
Method in brief: as §1

[2] = system: barnyardgrass (Echinochloa crus-galli); experiment: Test B flooded paddy test; conditions: Flood, 250 g ai/ha; 0 to 100 scale where 0 is no effect and 100 is complete control; 13 to 15 d
Method in brief: as §1

[3] = system: sedge, umbrella (small-flower umbrella sedge, Cyperus difformis); experiment: Test B flooded paddy test; conditions: Flood, 250 g ai/ha; 0 to 100 scale where 0 is no effect and 100 is complete control; 13 to 15 d
Method in brief: as §1

[4] = system: giant foxtail (Setaria faberii); experiment: Test A postemergence
Method in brief: (§2)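 Visual injury, scored on a 0–100 scale relative to untreated controls, was recorded about 10 d after application. Treatments were a preemergence soil spray over planted seeds or a postemergence spray on plants at the one- to two-leaf stage, 2 to 10 cm tall, all in loam soil–sand blend in the greenhouse.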

Kochia (Kochia scoparia) [5] = experiment: Test A postemergence
Method in brief: as §2

[6] = system: Galium (catchweed bedstraw, Galium aparine); experiment: Test A postemergence
Method in brief: as §2

[7] = system: pigweed (Amaranthus retroflexus); experiment: Test A postemergence
Method in brief: as §2

[8] = system: blackgrass (Alopecurus myosuroides); experiment: Test A postemergence
Method in brief: as §2

[9] = system: barnyardgrass (Echinochloa crus-galli); experiment: Test A postemergence
Method in brief: as §2

[10] = system: wheat (Triticum aestivum); experiment: Test A postemergence
Method in brief: as §2

[11] = system: ragweed (common ragweed, Ambrosia elatior); experiment: Test A postemergence
Method in brief: as §2

[12] = system: ryegrass, Italian (Italian ryegrass, Lolium multiflorum); experiment: Test A postemergence
Method in brief: as §2

corn (Zea mays) = experiment: Test A postemergence
Method in brief: as §2

[13] = system: giant foxtail (Setaria faberii); experiment: Test A preemergence
Method in brief: as §2

Kochia (Kochia scoparia) [14] = experiment: Test A preemergence
Method in brief: as §2

[15] = system: pigweed (Amaranthus retroflexus); experiment: Test A preemergence
[16] = system: barnyardgrass (Echinochloa crus-galli); experiment: Test A preemergence
Method in brief: as §2

[17] = system: ragweed (common ragweed, Ambrosia elatior); experiment: Test A preemergence
Method in brief: as §2

[18] = system: ryegrass, Italian (Italian ryegrass, Lolium multiflorum); experiment: Test A preemergence
Method in brief: as §2

[19] = 125 g ai/ha, postemergence, visual rating after approx. 10 d, 0 to 100 scale (0 no effect, 100 complete control)
[20] = Postemergence, 500 g ai/ha, 0 to 100 scale where 0 is no effect and 100 is complete control
[21] = 125 g ai/ha, Preemergence, visual injury after approximately 10 d, 0 to 100 scale where 0 is no effect and 100 is complete control
[22] = 500 g ai/ha, preemergence, 0 to 100 scale, 0 = no effect, 100 = complete control

CN1CC(c2ccc(F)c(C(F)(F)F)c2)C(C(=O)Nc2ccccc2S(C)(=O)=O)C1=O (stereo not drawn) [Compound 612]
Plant response rating, Rice (rice (Oryra sativa)): 15 | Plant response rating, Ducksalad [1]: 100 | Plant response rating, Barnyardgrass [2]: 65 | Plant response rating, Sedge, Umbrella [3]: 85 | Plant response rating, Foxtail, Giant [4, 19]: 70 | Plant response rating, Foxtail, Giant [4, 20]: 90 | Plant response rating, Kochia (Kochia (Kochia scoparia) [5]; [19]): 20 | Plant response rating, Kochia (Kochia (Kochia scoparia) [5]; [20]): 40 | Plant response rating, Galium [6, 19]: 30 | Plant response rating, Galium [6, 20]: 50 | Plant response rating, Pigweed [7, 19]: 20 | Plant response rating, Pigweed [7, 20]: 50 | Plant response rating, Blackgrass [8, 19]: 40 | Plant response rating, Blackgrass [8, 20]: 60 | Plant response rating, Barnyardgrass [9, 19]: 70 | Plant response rating, Barnyardgrass [9, 20]: 90 | Plant response rating, Wheat [10, 19]: 30 | Plant response rating, Wheat [10, 20]: 30 | Plant response rating, Ragweed [11, 19]: 0 | Plant response rating, Ragweed [11, 20]: 20 | Plant response rating, Ryegrass, Italian [12, 19]: 20 | Plant response rating, Ryegrass, Italian [12, 20]: 70 | Plant response rating, Corn (corn (Zea mays); [19]): 50 | Plant response rating, Corn (corn (Zea mays); [20]): 90 | Plant response rating, Foxtail, Giant [13, 21]: 90 | Plant response rating, Foxtail, Giant [13, 22]: 90 | Plant response rating, Kochia (Kochia (Kochia scoparia) [14]; [21]): 20 | Plant response rating, Kochia (Kochia (Kochia scoparia) [14]; [22]): 20 | Plant response rating, Pigweed [15, 21]: 70 | Plant response rating, Pigweed [15, 22]: 70 | Plant response rating, Barnyardgrass [16, 21]: 90 | Plant response rating, Barnyardgrass [16, 22]: 90 | Plant response rating, Ragweed [17, 21]: 50 | Plant response rating, Ragweed [17, 22]: 50 | Plant response rating, Ryegrass, Italian [18, 21]: 50 | Plant response rating, Ryegrass, Italian [18, 22]: 70
